Results: PubChem BioAssay AID1919008 (Molecular Pharmacology Branch, DTP, NCI, 2023)

Test system: DMS-114 complex spheroids with HUVEC/MSC, growth % test/control
Test: Anticancer human tumor DMS-114 cell line growth inhibition [AhR];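 note: spheroids exposed to agents for 7 days before readout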;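 for viability, T/C: 100% = DMSO vehicle control wells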
Conditions: for IC50: curve of first compound; for viability, T/C: stronger effect = lower value; active = viability on the fitted dose curve at most 10% of control; inactive = the rest
From the text: Multicellular complex tumor spheroid response to aryl hydrocarbon receptor antagonists in combination with a variety of drugs and investigational agents in selected tumor cell lines
The current study was undertaken to assess response to aryl hydrocarbon receptor antagonists in combination with standard-of-care drugs and investigational agents in solid tumor complex spheroid models. Complex spheroids include a stromal component modeled by human endothelial cells (HUVEC) and fibroblasts modeled by human mesenchymal stem cells (MSCs). The concentration ranges selected for each drug and investigational agent were based upon clinically achievable concentrations if the clinical Cmax of the agent was known.
Compounds. The drugs and investigational agents: BAY 2416964 (NSC825713), GNF351 (NSC835774), CH-223191 (NSC835775), CPI-455 (NSC825282), aza-TdCyd (NSC777586), decitabine (NSC127716), belinostat (NSC758774), entinostat (NSC756642), pevonedistat (NSC761192), tazemetostat (NSC777109), talazoparib (NSC765396), olaparib (NSC753686), selinexor (NSC780203), nedisertib (M3814, NSC802822), bortezomib (NSC756655), venetoclax (NSC766270), doxorubicin (NSC123127), elimusertib (BAY189344, NSC800525), ceralasertib (AZD6738, NSC777638), TAK-243 (NSC785004), alisertib (NSC759677), etoposide (NSC141540), topotecan (NSC609699), eribulin (NSC707389), gemcitabine (NSC613327), carboplatin (NSC241240), cisplatin (NSC119875), and SN-38 (NSC673596) were obtained from the National Cancer Institute (NCI) Developmental Therapeutics Program Chemical Repository (32). The FDA-approved anticancer drug set is available from the Developmental Therapeutics Program at https://dtp.cancer.gov/organization/dscb/obtaining/available plates.htm. […] The stock solutions were prepared in dimethyl sulfoxide (DMSO, Sigma-Aldrich, St. Louis, MO, cat. D2650), except for the platinum compounds which were prepared in saline (Quality Biological, Gaithersburg, MD, cat. 114-055-101), at 800-fold the tested concentration and stored at -70 degrees C prior to their use. All drugs and investigational agents were tested over a range starting from a high concentration at or near the clinical Cmax and decreasing in half-log increments. If the clinical Cmax for an agent had not been determined, the highest concentration tested was 10 microM (Table 1).
Cell Culture. All cells were maintained in an incubator at 37 degrees C and 5% CO2 with 95% humidity. The PDC lines were cultured according to standard operating procedures established by the NCI PDMR (https://pdmr.cancer.gov). Briefly, all PDCs were thawed and cultured in Matrigel-coated flasks prepared with a working solution of 1X Ham's F-12 nutrient mix, without supplementation (Invitrogen, Waltham, MA, cat. 11765054), 100 U/mL penicillin-streptomycin (Invitrogen, cat. 15140122), and 2.5% Matrigel (Corning Inc., Corning, NY, cat. 354248) for the first three passages. All PDCs were cultured in complete DMEM/F-12 media containing advanced DMEM/F-12 (Invitrogen, cat. 12634028), 4.9% defined fetal bovine serum, heat inactivated (HyClone Laboratories Inc., Logan, UT, cat. SH30070.03HI), 389 ng/mL hydrocortisone (Sigma-Aldrich, cat. H4001), 9.7 ng/mL human EGF recombinant protein (Invitrogen, cat. PHG0313), 23.4 microg/mL adenine (Sigma-Aldrich, cat. A2786), 97.3 U/mL penicillin-streptomycin (Invitrogen, cat. 15140122), 1.9 mM L-glutamine (Invitrogen, cat. 25030081), and 9.7 microM Y-27632 dihydrochloride (Tocris Bioscience, Bristol, United Kingdom, cat. 1254). The PDCs were cultured in complete DMEM/F12 media without 10 microM Y-27632 dihydrochloride for at least two passages prior to the screen. The established cell lines NCI-H1341 and […] were cultured in DMEM/F-12, HEPES (Invitrogen, cat. 11330032), 5% defined fetal bovine serum (HyClone Laboratories Inc., cat. SH30070.03), ITS premix universal culture supplement [insulin (5 microg/mL), transferrin (5 microg/mL), and selenious acid (5 ng/mL)] […]

[1] = second compound 0.1 µM, first compound 0.00316 µM
[2] = second compound 0.1 µM, first compound 0.01 µM
[3] = second compound 0.1 µM, first compound 0.0316 µM
[4] = second compound 0.1 µM, first compound 0.1 µM
[5] = second compound 0.316 µM, first compound 0.00316 µM
[6] = second compound 0.316 µM, first compound 0.01 µM
[7] = second compound 0.316 µM, first compound 0.0316 µM
[8] = second compound 0.316 µM, first compound 0.1 µM
[9] = second compound 1 µM, first compound 0.00316 µM
[10] = second compound 1 µM, first compound 0.01 µM
[11] = second compound 1 µM, first compound 0.0316 µM
[12] = second compound 1 µM, first compound 0.1 µM
[13] = second compound 3.16 µM, first compound 0.00316 µM
[14] = second compound 3.16 µM, first compound 0.01 µM
[15] = second compound 3.16 µM, first compound 0.0316 µM
[16] = second compound 3.16 µM, first compound 0.1 µM
[17] = second compound 10 µM, first compound 0.00316 µM
[18] = second compound 10 µM, first compound 0.01 µM
[19] = second compound 10 µM, first compound 0.0316 µM
[20] = second compound 10 µM, first compound 0.1 µM
[21] = second compound 0.1 µM, first compound 0.316 µM
[22] = second compound 0.1 µM, first compound 1 µM
[23] = second compound 0.1 µM, first compound 3.16 µM
[24] = second compound 0.1 µM, first compound 10 µM
[25] = second compound 0.316 µM, first compound 0.316 µM
[26] = second compound 0.316 µM, first compound 1 µM
[27] = second compound 0.316 µM, first compound 3.16 µM
[28] = second compound 0.316 µM, first compound 10 µM
[29] = second compound 1 µM, first compound 0.316 µM
[30] = second compound 1 µM, first compound 1 µM
[31] = second compound 1 µM, first compound 3.16 µM
[32] = second compound 1 µM, first compound 10 µM
[33] = second compound 3.16 µM, first compound 0.316 µM
[34] = second compound 3.16 µM, first compound 1 µM
[35] = second compound 3.16 µM, first compound 3.16 µM
[36] = second compound 3.16 µM, first compound 10 µM
[37] = second compound 10 µM, first compound 0.316 µM
[38] = second compound 10 µM, first compound 1 µM
[39] = second compound 10 µM, first compound 3.16 µM
[40] = second compound 10 µM, first compound 10 µM

CC[C@@]1(O)C(=O)OCc2c1cc1n(c2=O)Cc2cc3c(CN(C)C)c(O)ccc3nc2-1 + CC(CO)NC(=O)c1cc(-c2ccc(Cl)cc2)nn(-c2cnn(C)c2)c1=O
0.0327 µM: IC50 (second compound 3.16 µM)
0.0372 µM: IC50 (second compound 1 µM)
inactive: viability, T/C (second compound 0.1 µM, first compound 0.000316 µM) 101% | viability, T/C (second compound 0.1 µM, first compound 0.001 µM) 103% | viability, T/C [1] 95.7% | viability, T/C [2] 95.2% | viability, T/C [3] 51.9% | viability, T/C [4] 27.2% | viability, T/C (second compound 0.316 µM, first compound 0.000316 µM) 105% | viability, T/C (second compound 0.316 µM, first compound 0.001 µM) 99% | viability, T/C [5] 83.2% | viability, T/C [6] 81.3% | viability, T/C [7] 46% | viability, T/C [8] 26.9% | viability, T/C (second compound 1 µM, first compound 0.000316 µM) 88.9% | viability, T/C (second compound 1 µM, first compound 0.001 µM) 95.2% | viability, T/C [9] 90% | viability, T/C [10] 85.5% | viability, T/C [11] 54.6% | viability, T/C [12] 21.9% | viability, T/C (second compound 3.16 µM, first compound 0.000316 µM) 104% | viability, T/C (second compound 3.16 µM, first compound 0.001 µM) 100% | viability, T/C [13] 92.1% | viability, T/C [14] 74.2% | viability, T/C [15] 51% | viability, T/C [16] 26.4% | viability, T/C (second compound 10 µM, first compound 0.000316 µM) 116% | viability, T/C (second compound 10 µM, first compound 0.001 µM) 105% | viability, T/C [17] 95.1% | viability, T/C [18] 92.7% | viability, T/C [19] 48.1% | viability, T/C [20] 25.4%
0.0346 µM: IC50 (second compound 0.1 µM)
0.0324 µM: IC50 (second compound 0.316 µM)
0.0328 µM: IC50 (second compound 10 µM)

COc1cc(C2c3cc4c(cc3C(OC3OC5COC(C)OC5C(O)C3O)C3COC(=O)C23)OCO4)cc(OC)c1O (stereo not given) + CC(CO)NC(=O)c1cc(-c2ccc(Cl)cc2)nn(-c2cnn(C)c2)c1=O
0.469 µM: IC50 (second compound 0.316 µM)
inactive: viability, T/C [3] 87.4% | viability, T/C [4] 88.4% | viability, T/C [21] 64.3% | viability, T/C [22] 34.2% | viability, T/C [23] 25.8% | viability, T/C [24] 13.2% | viability, T/C [7] 95.9% | viability, T/C [8] 88.3% | viability, T/C [25] 55% | viability, T/C [26] 34.3% | viability, T/C [27] 25.8% | viability, T/C [28] 13.4% | viability, T/C [11] 97.7% | viability, T/C [12] 89.9% | viability, T/C [29] 56.3% | viability, T/C [30] 31.4% | viability, T/C [31] 22.7% | viability, T/C [32] 14% | viability, T/C [15] 90.4% | viability, T/C [16] 94.8% | viability, T/C [33] 52.8% | viability, T/C [34] 32.9% | viability, T/C [35] 23.6% | viability, T/C [36] 12% | viability, T/C [19] 94.4% | viability, T/C [20] 97.7% | viability, T/C [37] 58% | viability, T/C [38] 32.9% | viability, T/C [39] 22.2% | viability, T/C [40] 12.7%
0.448 µM: IC50 (second compound 1 µM)
0.572 µM: IC50 (second compound 0.1 µM)
0.489 µM: IC50 (second compound 10 µM)
0.431 µM: IC50 (second compound 3.16 µM)

COc1cccc2c1C(=O)c1c(O)c3c(c(O)c1C2=O)CC(O)(C(=O)CO)CC3OC1CC(N)C(O)C(C)O1 (stereo not given) + CC(CO)NC(=O)c1cc(-c2ccc(Cl)cc2)nn(-c2cnn(C)c2)c1=O
0.034 µM: IC50 (second compound 0.316 µM)
active: viability, T/C [22] 1.01% | viability, T/C [23] 0.27% | viability, T/C [24] 0.6% | viability, T/C [25] 8.15% | viability, T/C [26] 0.97% | viability, T/C [27] 0.59% | viability, T/C [28] 0.6% | viability, T/C [30] 0.95% | viability, T/C [31] 0.33% | viability, T/C [32] 0.54% | viability, T/C [34] 0.92% | viability, T/C [35] 1.14% | viability, T/C [36] 0.73% | viability, T/C [37] 9.28% | viability, T/C [38] 0.38% | viability, T/C [39] 0.32% | viability, T/C [40] 0.4%
< 0.0316 µM: IC50 (second compound 0.1 µM) | IC50 (second compound 1 µM) | IC50 (second compound 3.16 µM) | IC50 (second compound 10 µM)
inactive: viability, T/C [3] 40.4% | viability, T/C [4] 34.1% | viability, T/C [21] 8.85% | viability, T/C [7] 51.2% | viability, T/C [8] 31.4% | viability, T/C [11] 48.8% | viability, T/C [12] 33.5% | viability, T/C [29] 10.3% | viability, T/C [15] 43.9% | viability, T/C [16] 35.4% | viability, T/C [33] 9.19% | viability, T/C [19] 43.4% | viability, T/C [20] 27.3%

Nc1ncn(C2CC(O)C(CO)O2)c(=O)n1 (stereo not given) + CC(CO)NC(=O)c1cc(-c2ccc(Cl)cc2)nn(-c2cnn(C)c2)c1=O
> 1 µM: IC50 (second compound 0.1 µM) | IC50 (second compound 0.316 µM) | IC50 (second compound 1 µM) | IC50 (second compound 3.16 µM) | IC50 (second compound 10 µM)
inactive: viability, T/C [1] 102% | viability, T/C [2] 95.6% | viability, T/C [3] 97.8% | viability, T/C [4] 96.5% | viability, T/C [21] 85% | viability, T/C [22] 61.6% | viability, T/C [5] 122% | viability, T/C [6] 101% | viability, T/C [7] 93.9% | viability, T/C [8] 80% | viability, T/C [25] 79.8% | viability, T/C [26] 59.8% | viability, T/C [9] 91.3% | viability, T/C [10] 105% | viability, T/C [11] 90.3% | viability, T/C [12] 93.8% | viability, T/C [29] 83.3% | viability, T/C [30] 72.3% | viability, T/C [13] 109% | viability, T/C [14] 104% | viability, T/C [15] 80.1% | viability, T/C [16] 94.5% | viability, T/C [33] 85.1% | viability, T/C [34] 70.7% | viability, T/C [17] 101% | viability, T/C [18] 99.7% | viability, T/C [19] 93.4% | viability, T/C [20] 98% | viability, T/C [37] 91.8% | viability, T/C [38] 76.5%
